Laboratory results: patent publication US8399033B2, “Anti-bacterial composition comprising extract from barks of Alnus pendula Matsum” (Chung-Ang University Industry Academic Cooperation …, priority 2009, dated 2013)
Converted amounts (≈) assume the structure as drawn.

Experiments:
[1] = DPPH free radical scavenging activity; format: biochemical; conditions: 0.1 mM DPPH, 30 min at 37° C., absorbance 492 nm; for IC50: compounds
Protocol: Each sample (10 μL) was incubated with 0.1 mM DPPH solution (180 μL, in 99.5% ethanol), and vigorously agitated for 10 sec using a vortex mixer, followed by incubation for 30 min at 37° C. Afterwards, the absorbance was measured at 492 nm using an ELISA reader (TECAN, Sazburg, Austria). L-ascorbic acid as positive control drug was prepared and measured according to the method as described above. To determine anti-oxidative activity of each sample, anti-oxidative potential was represented as reducing power by EDA % (Electron donating ability) for DPPH. […] DPPH method is a representative measuring anti-oxidative activity (81). DPPH contains stable radical in normal condition, but its radical was removed where it contacts with a substance having anti-oxidative activity. Therefore, anti-oxidative effects could be assessed by measuring the absorbance changes of DPPH. In this regard, DPPH as a relatively stable free radical in dark-purple state was reduced by amino acids containing sulfur atom such as cystin and glutathione, L-ascorbic acid, BHA or BHT. These color changes have been used to isolate an anti-oxidative substance from a variety of natural materials (82).

DPS-1 (MRSA) = experiment: MIC by liquid media dilution assay; format: cell-based; conditions: Staphylococcus aureus; DPS-1 (MRSA) clinical isolate; 24 hrs at 37° C., naked-eye observation; read-out: MIC (minimum inhibitory concentration)
Protocol: (§1) S.aureus MSSA ATCC 25923 and MRSA 33591 standard strains were purchased from Korean Culture Center of Microorganisms (KCCM), and two S. aureus clinical isolates were obtained from subjects of WonKwang University Hospital (Iksan, Jeonbuk, South Korea). Mueller Hinton Agar (MHA, Difco, USA) or Mueller Hinton Broth (MHB, Difco, USA) was used as subculture media.
(§2) Minimum Inhibitory Concentration (MIC) was carried out according to the standard of Clinical and Laboratory Standards Institute (CLSI). One strain of MRSA (Methicillin resistant staphylococcus aureus), one strain of MSSA (Methicillin susceptible staphylococcus aureus, MSSA), and two strains of MRSAs as clinical isolates obtained from plastic surgery subjects of WonKwang University Hospital, were suspended in Muller-Hinton Broth. Thereafter, the bacterial solutions were adjusted to the turbidity of 0.5 Mcfarland standard. The bacteria were prepared at a concentration of about 1×10^8 CFU/ml, followed by performing anti-bacterial experiment using a liquid media dilution assay.
(§3) The extract from a bark of Alnus pendula was serially diluted from minimal concentration (0.97 μg/ml) to maximal concentration (2 mg/ml) using DMSO (Dimethylsulfoxide) as a solvent, and then were seeded into each well of 96-well plate with a volume of 10 μl/well, followed by adding 100 μl bacterial solution and 90 μl media. After culturing the mixture for 24 hrs at 37° C. in incubator, MIC was defined as minimal concentration in which the growth of bacteria is inhibited in a naked-eye observation.

[2] = tested on: S. aureus ATCC 33591 (MRSA); experiment: MIC by liquid media dilution assay; format: cell-based; conditions: Staphylococcus aureus, 24 hrs at 37° C., naked-eye observation, read-out: MIC (minimum inhibitory concentration)
Protocol: as §1, §2, §3

DPS-2 (MRSA) = experiment: MIC by liquid media dilution assay; format: cell-based; conditions: Staphylococcus aureus; DPS-2 (MRSA) clinical isolate; 24 hrs at 37° C., naked-eye observation; read-out: MIC (minimum inhibitory concentration)
Protocol: as §1, §2, §3

[3] = tested on: S. aureus ATCC 25923 (MSSA); experiment: MIC by liquid media dilution assay; format: cell-based; conditions: Staphylococcus aureus, 24 hrs at 37° C., naked-eye observation, read-out: MIC (minimum inhibitory concentration)
Protocol: as §1, §2, §3

O=C1O[C@H]([C@@H](O)CO)C(O)=C1O [Vit. C, L-ascorbic acid]
IC50 [1]: 16.4 ± 0.21 µM
IC50 value DPPH radical scavenging activity ([1]; extract and fractions): 5.29 ± 0.05 µg/mL (≈ 30 µM)

O=C(/C=C/CCc1ccc(O)c(O)c1)CCc1ccc(O)c(O)c1 [compound 2, 1,7-bis-(3,4-dihydroxyphenyl)-4-heptene-3-one]
IC50 [1]: 22.5 ± 0.71 µM
MIC (DPS-1 (MRSA)): 125 µg/mL (≈ 381 µM)
MIC [2]: 62.5 µg/mL (≈ 190 µM)
MIC (DPS-2 (MRSA)): 62.5 µg/mL (≈ 190 µM)
MIC [3]: 62.5 µg/mL (≈ 190 µM)
